In patent US20250114367A1, “METHOD OF TREATING HAIR LOSS DISORDERS” (Sun Pharmaceutical Industries, Inc., priority 2023, published 2025):

How the values were obtained:
[1] = system: adult subjects with moderate to severe AA; experiment: Phase III trial: Severity of Alopecia Tool (SALT) score; assay type: in vivo, human; settings: for percentages of participants (responders) stratified by duration of current AA episode: week 24
Description: The SALT score is calculated for a patient/subject by measuring the percentage of hair loss in each of the 4 areas of the scalp and adding the total to achieve a composite score (referred to herein as an absolute SALT score). Hair regrowth is reflected by a decrease in the SALT score.
(§1) Approximately 440 adult male and female subjects 18 to 65 years of age, inclusive, with moderate to severe AA participated in the study. Subjects with definitive diagnosis of AA, and at least 50% hair loss, as defined by a SALT score ≥50, who met all of the inclusion criteria and none of the exclusion criteria participated in the study.
(§2) The Screening Period lasted up to 28 days prior to initiation of study drug. […] Randomization was stratified by scalp hair loss into 1 of the following 2 categories: 1) partial scalp hair loss (SALT ≥50 and <95), 2) complete or near complete scalp hair loss (SALT ≥95).
Assessment of treatment response using SALT for efficacy occurred at 4, 8, 12, 16, 20 and 24 weeks.
The primary efficacy endpoint was the percentage of subjects achieving an absolute SALT score of ≤20.
(§3) Additional secondary efficacy endpoints included the following: • Relative change in SALT scores from baseline at Weeks 4, 8, 12, 16, 20, and 24. • Percentage of responders (defined as “much improved” or “very much improved”) using the Clinical Global Impression of Improvement (CGI-I) at Weeks 12, 16, 20, and 24. • Percentage of responders (defined as “much improved” or “very much improved”) using the Patient Global Impression of Improvement (PGI-I) at Weeks 12, 16, 20, and 24. • Change from baseline in the Clinical Global Impression of Severity (CGI-S) at Weeks 12, 16, 20, and 24. • Change from baseline in the Patient Global Impression of Severity (PGI-S) at Weeks 12, 16, 20, and 24. • Change from baseline on the Brigham Eyebrow Tool for Alopecia (BETA) score at Weeks 12 and 24. • Change from baseline on the Brigham Eyelash Tool for Alopecia (BELA) score at Weeks 12 and 24. • Percentage of subjects achieving at least a 75% relative reduction in SALT score from baseline at Weeks 12 and 24. • Percentage of subjects achieving at least a 90% relative reduction in SALT score from baseline at Weeks 12 and 24. • Percentage of responders (defined as “satisfied” or “very satisfied”) on the SPRO scale at Weeks 12, 16, and 20. • Change from baseline in the SPRO scale at Weeks 12, 16, 20, and 24. • Percentage of subjects achieving a ≥2-point change from baseline in the SPRO scale at Weeks 12, 16, 20, and 24. • Change from baseline on the individual items of the Hair Quality Patient Reported Outcome (QPRO) scale at Weeks 12, 16, 20, and 24. • Change from baseline in the depression scale of the Hospital Anxiety and Depression Scale (HADS) at Week 24. • Change from baseline in the anxiety scale of the HADS at Week 24. • Percentage of subjects achieving an absolute SALT score of ≤20 at Week 4. • Percentage of subjects achieving an absolute SALT score of ≤10 at Week 24
• Clinical presentation compatible with alopecia areata with a current episode lasting at least 6 months and not exceeding 10 years at the time of Screening. Total disease duration greater than 10 years is permitted. • At least 50% scalp hair loss, as defined by a Severity of Alopecia Tool (SALT) score ≥50, at Screening and Baseline. • Willing to comply with the study visits and requirements of the study protocol.
This will include but is not limited to: • a. Platelets ≤100×109/L or ≥600×109/L • b. Absolute neutrophil count ≤1.5×109/L • c.

[2] = system: plasma protein; experiment: Plasma protein binding of CTP-543 at 2 hours post-dose (renal impairment study); assay type: in vitro ADME, human; settings: moderate renal impairment vs matched controls with normal renal function
Text: All subjects had samples collected for PK.

[3] = system: adult subjects with moderate to severe AA; experiment: Phase III trial: Hospital Anxiety and Depression Scale (HADS); assay type: in vivo, human; settings: for HADS anxiety scale, LS mean change from baseline / HADS anxiety scale, LS mean treatment group difference from placebo / HADS depression scale, LS mean change from baseline / HADS depression scale, LS mean treatment group difference from placebo: Week 24
Text: The Hospital Anxiety and Depression Scale (HADS) is used to measure anxiety and depression in a general medical population of subjects. HADS comprises of 14 items (7 items each for anxiety and depression), with a score ranging between 0 and 21 for the anxiety and depression subscales. Scores between 8 and 10 indicate a moderate presence of symptoms of anxiety and depression, whereas a score greater than 11 indicates a significant number of symptoms of anxiety and depression that likely correspond with a clinical diagnosis. The total HADS score may be regarded as a global measure of psychological distress (Roberts et al, 2001; Johnston et al, 2000). A negative change in a subject's HADS score from a starting timepoint to an end point during treatment, e.g. from baseline to Week 24 of treatment, indicates an improvement in symptoms of anxiety and depression. The HADS questionnaire was completed by subjects at baseline and Week 24. The term “baseline” as used herein refers to the HADS score (or HADS-A or HADS-D score) determined before administration of Compound (I).
as §1, §2, §3
Changes from baseline to Week 24 in the depression scale of subjects who were randomized to treatment with deuruxolitinib 8 mg twice daily (BID), deuruxolitinib 12 mg BID, or placebo for 24 weeks were measured. Subjects completed the HADS 14-item questionnaire with 7 items for anxiety (HADS-A) and 7 items for depression (HADS-D).

## [2H]C1([2H])C([C@@H](CC#N)n2cc(-c3ncnc4[nH]ccc34)cn2)C([2H])([2H])C([2H])([2H])C1([2H])[2H] [CTP-543, (R)-3-(4-(7H-pyrrolo[2,3-d]pyrimidin-4-yl)-1H-pyrazol-1-yl)-3-(cyclopentyl-2,2,3,3,4,4,5,5-d8) propanenitrile]
[1]; Week 8, 12 mg BID
  percentage of subjects achieving an absolute SALT score of ≤20: 2.4%
[1]; Week 12, 8 mg BID
  percentage of subjects achieving an absolute SALT score of ≤20: 10.5%
[1]; Week 12, 12 mg BID
  percentage of subjects achieving an absolute SALT score of ≤20: 12.3%
[1]; Week 16, 8 mg BID
  percentage of subjects achieving an absolute SALT score of ≤20: 20.2%
[1]; Week 16, 12 mg BID
  percentage of subjects achieving an absolute SALT score of ≤20: 21.1%
[1]; Week 20, 12 mg BID
  percentage of subjects achieving an absolute SALT score of ≤20: 28.8%
[1]; Week 24, 8 mg BID
  percentage of subjects achieving an absolute SALT score of ≤20: 33%
[1]; Week 24, 12 mg BID
  percentage of subjects achieving an absolute SALT score of ≤20: 38.3%
  percentage of subjects with an absolute SALT score ≤10: 26.7%
[1]; Week 24, complete or near-complete scalp hair loss, 8 mg BID, 31/156
  subjects achieving SALT score ≤20: 20.9%
[1]; Week 24, complete or near-complete scalp hair loss, 8 mg BID, 37/184
  subjects achieving SALT score ≤20: 20.1%
[1]; Week 24, complete or near-complete scalp hair loss, 12 mg BID, 19/79
  subjects achieving SALT score ≤20: 26.0
[1]; Week 24, complete or near-complete scalp hair loss, 12 mg BID, 33/112
  subjects achieving SALT score ≤20: 29.5
[1]; Week 24, partial scalp hair loss at baseline, 8 mg BID, 46/93
  subjects achieving SALT score ≤20: 54.1%
[1]; Week 24, partial scalp hair loss at baseline, 8 mg BID, 57/134
  subjects achieving SALT score ≤20: 42.5%
[1]; Week 24, partial scalp hair loss at baseline, 12 mg BID, 27/48
  subjects achieving SALT score ≤20: 57.4%
[1]; Week 24, partial scalp hair loss at baseline, 12 mg BID, 50/88
  subjects achieving SALT score ≤20: 56.8%
[1]; two Phase 3 trials, THRIVE-AA1 and THRIVE-AA2
  hair regrowth vs placebo: significant improvements in hair regrowth vs placebo
[1]; week 8, 8 mg BID
  percentage of subjects achieving an absolute SALT score of ≤20: 2.9%
[1]; >4 years duration, 12 mg BID, 13/50
  percentages of participants (responders) stratified by duration of current AA episode: 28.9%
[1]; ≤4 years duration, 8 mg BID, 57/157
  percentages of participants (responders) stratified by duration of current AA episode: 38.3%
[1]; ≤4 years duration, 12 mg BID, 33/77
  percentages of participants (responders) stratified by duration of current AA episode: 44.0%
[2]
  differences in plasma protein binding between cohorts: no meaningful differences
[3]; 8 mg BID
  HADS anxiety scale, LS mean change from baseline: −1.1
  HADS anxiety scale, LS mean treatment group difference from placebo: 0.5
  HADS depression scale, LS mean change from baseline: −1.2
  HADS depression scale, LS mean treatment group difference from placebo: 0.8
[3]; 12 mg BID
  HADS anxiety scale, LS mean change from baseline: −0.9
  HADS anxiety scale, LS mean treatment group difference from placebo: 0.2
  HADS depression scale, LS mean change from baseline: −1.5
  HADS depression scale, LS mean treatment group difference from placebo: 1.1
[3]; baseline to Week 24, 8 mg BID
  subjects achieving a ≥3-point improvement in the HADS-D score: 26.2%
  subjects achieving a ≥4-point improvement in the HADS-A score: 18.9%
